For one experiment, the system named is PC-3 cells. The experiment in a line: Cell Proliferation Assay (Cell Titer Glo), PC-3 cell line. It is filed as cell-based. The note with it: Homo sapiens, PC-3, Cell Proliferation Assay, PC3; read-out: CPEC50 PC3. Summed up:
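PC-3 cells, 1000 cells/well, left to adhere 3-5 h, then exposed for 3 days at 37° C to compounds as 1:3 serial dilutions from 500× DMSO stocks diluted in growth medium. Medium then replaced with fresh medium and viability read by Cell Titer Glo luminescence.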
On the technique in general: ATP-based viability assays read luminescence as a measure of living cells.

The next experiment deals with T1, PDK1 kinase (Homo sapiens, UniProt O15530).
T1 sequence (O15530 1-556): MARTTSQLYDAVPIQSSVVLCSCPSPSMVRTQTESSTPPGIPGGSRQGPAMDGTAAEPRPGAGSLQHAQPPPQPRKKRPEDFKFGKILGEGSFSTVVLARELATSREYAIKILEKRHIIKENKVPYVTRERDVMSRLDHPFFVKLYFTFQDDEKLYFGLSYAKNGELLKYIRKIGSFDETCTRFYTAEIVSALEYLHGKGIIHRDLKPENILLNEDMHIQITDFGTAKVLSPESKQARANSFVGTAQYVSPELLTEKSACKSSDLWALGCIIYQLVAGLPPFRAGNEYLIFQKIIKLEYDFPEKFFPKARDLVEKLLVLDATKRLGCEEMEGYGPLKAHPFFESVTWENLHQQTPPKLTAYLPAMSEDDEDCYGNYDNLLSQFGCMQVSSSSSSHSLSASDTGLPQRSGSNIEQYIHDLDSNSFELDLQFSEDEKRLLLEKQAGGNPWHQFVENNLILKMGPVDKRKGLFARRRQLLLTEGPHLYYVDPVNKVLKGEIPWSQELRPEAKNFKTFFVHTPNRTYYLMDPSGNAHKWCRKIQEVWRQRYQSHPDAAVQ
Nature of the experiment: PDK1 Kinase Alpha Screen Assay. It is filed as biochemical. The note with it: PDK1 Kinase Alpha Screen Assay; read-out: PDK1 IC50. Summed up:
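PDK1 phosphorylated 50 nM biotinylated PDK1-4 peptide with 10 uM ATP in Tris pH 7.5, 10 mM MgCl2, 2 mM DTT, 2.5% DMSO for 3-18 hours. After EDTA stop, phosphopeptide was detected by AlphaScreen using phospho-(Ser/Thr) PKA substrate antibody with protein A/streptavidin beads, read after overnight incubation.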

The term IC50 denotes the concentration that gives 50% inhibition.

Regarding `CN1CCN(c2ccc(-c3cccc4cnc(Nc5ccc(C(F)(F)F)nc5)nc34)cn2)CC1` [Compound 436, 8-(6-(4-methylpiperazin-1-yl)pyridin-3-yl)-N-(6-(trifluoromethyl)pyridine-3-yl)quinazolin-2-amine], the EC50 with PC-3 cells is under 5 µM. Also, the IC50 at PDK1 kinase is under 5 µM.

On to `O=S(=O)(c1cccc(Nc2ncc3c(Br)ccc(OC4CCNCC4)c3n2)c1)N1CCOCC1` [Compound 437, 5-bromo-N-(3-(morpholinosulfonyl)phenyl)-8-(piperidin-4-yloxy)quinazolin-2-amine], for which, in the experiment on PC-3 cells, the EC50 is under 5 µM. Besides, the half-maximal inhibitory concentration (IC50) at PDK1 kinase is 5 to 10 µM.

Consider `O=C(c1ccc(Nc2ncc3c(Br)ccc(OC4CCNCC4)c3n2)cc1)N1CCOCC1` [Compound 438, (4-(5-bromo-8-(piperidin-4-yloxy)quinazolin-2-ylamino)phenyl)(morpholino)methanone], for which the EC50 in the experiment with PC-3 cells is under 5 µM. Besides, at PDK1 kinase, the IC50 is under 5 µM.

Regarding `CC(C)NC(=O)c1ccc(Nc2ncc3cccc(OC4CCNCC4)c3n2)cc1F` [Compound 439, 2-fluoro-N-isopropyl-4-(8-(piperidin-4-yloxy)quinazolin-2-ylamino)benzamide], the EC50 in the experiment on PC-3 cells was under 5 µM. In addition, the IC50 on PDK1 kinase is under 5 µM.

Consider `O=C(NC1CCOCC1)c1ccc(Nc2ncc3cccc(OC4CCNCC4)c3n2)cc1F` [Compound 440, 2-fluoro-4-(8-(piperidin-4-yloxy)quinazolin-2-ylamino)-N-(tetrahydro-2H-pyran-4-yl)benzamide], for which the EC50 in the experiment on PC-3 cells was under 5 µM. In addition, the IC50 on PDK1 kinase was under 5 µM.

In the case of `O=C(O)c1ccc(Nc2ncc3cccc(OC4CCNCC4)c3n2)cc1F` [Compound 441, 2-fluoro-4-(8-(piperidin-4-yloxy)quinazolin-2-ylamino)benzoic acid], in the experiment on PC-3 cells, the EC50 was 5 to 10 µM. In addition, the half-maximal inhibitory concentration (IC50) on PDK1 kinase is under 5 µM.

For the compound `CC(=O)Nc1cccc(Nc2ncc3cccc(-c4ccc(N5CCN(C)CC5)nc4)c3n2)c1` [Compound 442, N-(3-(8-(6-(4-methylpiperazin-1-yl)pyridin-3-yl)quinazolin-2-ylamino)phenyl)acetamide], the EC50 with PC-3 cells was under 5 µM. Moreover, at PDK1 kinase, the IC50 is under 5 µM.

For the compound `CN1CCN(c2ccc(-c3cccc4cnc(Nc5cccc(-c6cnco6)c5)nc34)cn2)CC1` [Compound 443, 8-(6-(4-methylpiperazin-1-yl)pyridin-3-yl)-N-(3-(oxazol-5-yl)phenyl)quinazolin-2-amine], the EC50 in the experiment on PC-3 cells was under 5 µM. The IC50 on PDK1 kinase was under 5 µM.

Take `O=C(NC1CC1)c1ccc(Nc2ncc3cccc(OC4CCNCC4)c3n2)cc1F` [Compound 444, N-cyclopropyl-2-fluoro-4-(8-(piperidin-4-yloxy)quinazolin-2-ylamino)benzamide]: the EC50 with PC-3 cells was under 5 µM. Also, the IC50 at PDK1 kinase is under 5 µM.

For the compound `COCCNC(=O)c1ccc(Nc2ncc3cccc(OC4CCNCC4)c3n2)cc1F` [Compound 445, 2-fluoro-N-(2-methoxyethyl)-4-(8-(piperidin-4-yloxy)quinazolin-2-ylamino)benzamide], the EC50 in the experiment with PC-3 cells is under 5 µM. Further, the IC50 on PDK1 kinase is under 5 µM.

For `CN(C)C(=O)c1ccc(Nc2ncc3cccc(OC4CCNCC4)c3n2)cc1F` [Compound 446, 2-fluoro-N,N-dimethyl-4-(8-(piperidin-4-yloxy)quinazolin-2-ylamino)benzamide], the EC50 in the experiment on PC-3 cells was under 5 µM. Moreover, on PDK1 kinase, the IC50 is under 5 µM.

As for `O=C(c1ccc(Nc2ncc3cccc(OC4CCNCC4)c3n2)cc1F)N1CCOCC1` [Compound 447, (2-fluoro-4-(8-(piperidin-4-yloxy)quinazolin-2-ylamino)phenyl)(morpholino)methanone], the EC50 in the experiment with PC-3 cells is under 5 µM. Moreover, the IC50 on PDK1 kinase was under 5 µM.

Consider `NC(=O)c1cc(Nc2ncc3cccc(OC4CCNCC4)c3n2)ccc1N1CCOCC1` [Compound 448, 2-morpholino-5-(8-(piperidin-4-yloxy)quinazolin-2-ylamino)benzamide], for which the EC50 in the experiment on PC-3 cells was in the range of 5 to 10 µM. The half-inhibitory concentration (IC50) at PDK1 kinase was under 5 µM.

On to `O=C(O)c1cc(Nc2ncc3cccc(OC4CCNCC4)c3n2)ccc1N1CCOCC1` [Compound 449, 2-morpholino-5-(8-(piperidin-4-yloxy)quinazolin-2-ylamino)benzoic acid], for which, in the experiment on PC-3 cells, the EC50 was 5 to 10 µM. Moreover, the half-inhibitory concentration (IC50) at PDK1 kinase is under 5 µM.

For `O=C(O)c1cc(Nc2ncc3cccc(OC4CCNCC4)c3n2)cc(C(F)(F)F)c1` [Compound 450], the EC50 in the experiment on PC-3 cells was 5 to 10 µM. For the same compound, the IC50 at PDK1 kinase is under 5 µM.

For the compound `CCOC(=O)c1cc(F)cc(Nc2ncc3cccc(OC4CCNCC4)c3n2)c1` [Compound 451, ethyl 3-fluoro-5-(8-(piperidin-4-yloxy)quinazolin-2-ylamino)benzoate], in the experiment with PC-3 cells, the EC50 is under 5 µM. The half-maximal inhibitory concentration (IC50) at PDK1 kinase was under 5 µM.

Turning to `FC(F)(F)c1cc(Br)cc(Nc2ncc3cccc(OC4CCNCC4)c3n2)c1` [Compound 452, N-(3-bromo-5-(trifluoromethyl)phenyl)-8-(piperidin-4-yloxy)quinazolin-2-amine], the EC50 in the experiment with PC-3 cells was under 5 µM. In addition, the IC50 on PDK1 kinase was under 5 µM.

On to `CC(C)NC(=O)c1cc(Nc2ncc3cccc(OC4CCNCC4)c3n2)cc(C(F)(F)F)c1` [Compound 453, N-isopropyl-3-(8-(piperidin-4-yloxy)quinazolin-2-ylamino)-5-(trifluoromethyl)benzamide], for which, in the experiment with PC-3 cells, the EC50 was under 5 µM. On PDK1 kinase, the concentration for half-maximal inhibition (IC50) is under 5 µM.

With `O=C(c1cc(Nc2ncc3cccc(OC4CCNCC4)c3n2)cc(C(F)(F)F)c1)N1CCOCC1` [Compound 454, morpholino(3-(8-(piperidin-4-yloxy)quinazolin-2-ylamino)-5-(trifluoromethyl)phenyl)methanone], the EC50 with PC-3 cells was 5 to 10 µM. In addition, the IC50 on PDK1 kinase was under 5 µM.

`CN(C)C(=O)c1cc(Nc2ncc3cccc(OC4CCNCC4)c3n2)ccc1N1CCOCC1` [Compound 455, N,N-dimethyl-2-morpholino-5-(8-(piperidin-4-yloxy)quinazolin-2-ylamino)benzamide]: the EC50 in the experiment on PC-3 cells lay within 5 to 10 µM. In addition, the IC50 on PDK1 kinase was under 5 µM.

As for `O=C(NC1CC1)c1cc(Nc2ncc3cccc(OC4CCNCC4)c3n2)ccc1N1CCOCC1` [Compound 456, N-cyclopropyl-2-morpholino-5-(8-(piperidin-4-yloxy)quinazolin-2-ylamino)benzamide], the EC50 with PC-3 cells is under 5 µM. Also, the IC50 on PDK1 kinase was under 5 µM.

Consider `Fc1cc(Nc2ncc3cccc(OC4CCNCC4)c3n2)ccc1N1CCOCC1` [Compound 457, N-(3-fluoro-4-morpholinophenyl)-8-(piperidin-4-yloxy)quinazolin-2-amine], for which the EC50 in the experiment on PC-3 cells is under 5 µM. Moreover, at PDK1 kinase, the half-maximal inhibitory concentration (IC50) was under 5 µM.

In the case of `c1cc(OC2CCNCC2)c2nc(Nc3ccc(-c4cnco4)cc3)ncc2c1` [Compound 458, N-(4-(oxazol-5-yl)phenyl)-8-(piperidin-4-yloxy)quinazolin-2-amine], the EC50 in the experiment with PC-3 cells was under 5 µM. In addition, the IC50 at PDK1 kinase was under 5 µM.

As for `CN1CCN(c2ccc(-c3cccc4cnc(Nc5ccc(N6CCOCC6)c(F)c5)nc34)cc2)CC1` [Compound 459, N-(3-fluoro-4-morpholinophenyl)-8-(4-(4-methylpiperazin-1-yl)phenyl)quinazolin-2-amine], the EC50 with PC-3 cells is under 5 µM. Moreover, at PDK1 kinase, the IC50 is under 5 µM.

Turning to `Fc1cc(Nc2ncc3cccc(C4=CCNCC4)c3n2)ccc1N1CCOCC1` [Compound 460, N-(3-fluoro-4-morpholinophenyl)-8-(1,2,3,6-tetrahydropyridin-4-yl)quinazolin-2-amine], in the experiment on PC-3 cells, the EC50 is under 5 µM. The 50% inhibitory concentration (IC50) on PDK1 kinase was under 5 µM.

In the case of `CC(C)NC(=O)c1cc(F)cc(Nc2ncc3cccc(OC4CCNCC4)c3n2)c1` [Compound 461, 3-fluoro-N-isopropyl-5-(8-(piperidin-4-yloxy)quinazolin-2-ylamino)benzamide], the EC50 in the experiment with PC-3 cells is under 5 µM. In addition, the IC50 on PDK1 kinase is under 5 µM.

With `O=C(c1cc(F)cc(Nc2ncc3cccc(OC4CCNCC4)c3n2)c1)N1CCOCC1` [Compound 462], in the experiment on PC-3 cells, the EC50 is under 5 µM. Further, on PDK1 kinase, the IC50 was under 5 µM.

Take `CN1CCN(C(=O)c2cc(F)cc(Nc3ncc4cccc(OC5CCNCC5)c4n3)c2)CC1` [Compound 463, (3-fluoro-5-(8-(piperidin-4-yloxy)quinazolin-2-ylamino)phenyl)(4-methylpiperazin-1-yl)methanone]: the EC50 in the experiment with PC-3 cells is under 5 µM. The 50% inhibitory concentration (IC50) on PDK1 kinase is under 5 µM.

For `Cc1ccc(OC2CCNCC2)c2nc(Nc3ccc(S(N)(=O)=O)cc3)ncc12` [Compound 464, 4-(5-methyl-8-(piperidin-4-yloxy)quinazolin-2-ylamino)benzenesulfonamide], the EC50 in the experiment on PC-3 cells is 5 to 10 µM. In addition, at PDK1 kinase, the IC50 is under 5 µM.

Take `c1cc(CN2CCOCC2)cc(Nc2ncc3cccc(-c4ccc(NCCN5CCCC5)nc4)c3n2)c1` [Compound 465, N-(3-(morpholinomethyl)phenyl)-8-(6-(2-(pyrrolidin-1-yl)ethylamino)pyridin-3-yl)quinazolin-2-amine]: the EC50 in the experiment with PC-3 cells was under 5 µM. Besides, at PDK1 kinase, the IC50 was under 5 µM.

Values taken from patent publication US7932262B2 (Novartis AG, priority 2006, dated 2011).
